US9783495B2, “Treatment for lipodystrophy” (Cadila Healthcare Limited, priority 2011, dated 2017)

Assays:
[1] = system: HIV-infected men with central obesity and low testosterone levels; details: transdermal gel 10 g daily, 24 weeks, cited from earlier work
[2] = system: subjects with hypertriglyceridemia in HIV associated lipodystrophy; assay: Prospective, multi-centric, open-label, single arm study of 4 mg of compound of formula (I) in hypertriglyceridemia in HIV associated lipodystrophy; format: in vivo, human; details: 4 mg oral once daily; for Homa of Insulin Resistance for C-Peptide, Mean ± SD: Visit 1 mean 1.59 ± 0.82; for Insulin (fasting), Mean ± SD: Visit 1 mean 9.21 ± 6.26; for HDL Cholesterol, Mean ± SD: Visit 1 mean 35.27 ± 7.85; for HOMA of Beta Cell Function for Insulin, Mean ± SD: Visit 1 mean 107.82 ± 52.85; for TG, Mean ± SD: Visit 1 mean 301.68 ± 86.99; for Homa of Insulin Resistance for C-Peptide, Median: Visit 1 median 1.40; for Insulin (fasting), Median: Visit 1 median 7.40; for HDL Cholesterol, Median: Visit 1 median 34.52; for HOMA of Beta Cell Function for Insulin, Median: Visit 1 median 97.25; for TG, Median: Visit 1 median 275.45
Excerpt: After obtaining informed written consent, subjects with hypertriglyceridemia in HIV associated lipodystrophy, on treatment with HAART for at least 18 months and satisfying the inclusion and exclusion criteria were enrolled in the study.
The primary efficacy endpoint was to assess the percent change in TG levels from baseline to Week 6 and Week 12. The secondary efficacy endpoint was the assessment of LDL, VLDL, HDL, Non HDL cholesterol, Total cholesterol, Apo Al, Apo B, and C-peptide and fasting insulin for HOMA beta and HOMA IR.
For the efficacy endpoints, treatment effect was evaluated using an analysis of variance (ANOVA) model with factors for baseline and treatment. Treatment effects were estimated using the least-square means (LSM) and 95% confidence intervals (CIs) from the ANOVA model. Statistical significance was defined as a two-sided p-value <0.05. All other secondary endpoints were analyzed using appropriate statistical methods.
Subjects who satisfied all of the following criteria were eligible for enrolment in the study: • 1. Males and females aged 18-65 years. • 2. Confirmed diagnosis of HIV1 and on HAART for at least 18 months. • 3. On stable ART regimen for at least 8 weeks prior to inclusion in the study and ART regimen not expected to change in next 3 months. • 4. Subjects clinically diagnosed as HIV lipodystrophy (at least 1 moderate or severe lipodystrophy feature identified by doctor and patient, except isolated abdominal obesity) • 5. Triglycerides>200 to 500 mg %. • 6. CD4 count of>50/mm^3 • 7. Subject who had given informed consent for participation in this trial. Treatments Treatments Administered […]
The primary efficacy endpoint was to determine the percent change in TG levels from baseline to Week 6 and Week 12.
The secondary efficacy endpoint was to determine the percent change in LDL, VLDL, HDL, total cholesterol, non-HDL Cholesterol (measured value), Apo Al, and Apo B, C-peptide and fasting insulin for HOMA beta and HOMA IR levels from baseline to Week 6 and Week 12.
The primary efficacy variable was the reduction in TG at Week 6 and Week 12 of the treatment period compared with baseline. The change from baseline was determined as the difference between the means for the treatment period (Weeks 6/Weeks 12) and the baseline.
Intent-to-treat (ITT) and/or Per Protocol (PP) analysis were carried out for the study. The PP analysis was considered definitive while the ITT analysis was considered supportive during the trial analysis.
One subject identified as EHT004 in the study, a person, was reported with abnormally low levels of HDL (3.95 mg/L) and LDL (6.25 mg/L) at Visit 1. Though this subject completed the study and was assessable for efficacy, it was decided to exclude this subject from the efficacy analyses. Therefore a total of 49 subjects were analyzed for efficacy.

Dyslipidemia subjects = assay: Phase II studies in Dyslipidemia subjects; format: in vivo, human; details: 4 mg once daily
Experimental: This was exploratory proof of concept study designed to assess the proof of safety and efficacy in intended population. […] Based upon these observations 4 mg once daily in fasted condition was selected for present study

[3] = Phase I study, effect of food on absorption; format: in vivo, human
[4] = Visit 3 (Week 6), p <0.0001, listed as COMPOUND OF FORMULA(I)
[5] = Visit 4 (Week 12), p <0.0001, listed as COMPOUND OF FORMULA(I)

C[C@]12CC[C@H]3[C@@H](CCC4=CC(=O)CC[C@@]43C)[C@@H]1CC[C@@H]2O [testosterone]
change in VAT ([1]; placebo +2.3%, no statistically significant difference): +0.9%
change in limb fat ([1]; placebo +3.1%, statistically significant): −10.1%
change in abdominal fat ([1]; placebo +4.3%, statistically significant): −1.5%
change in trunk fat ([1]; placebo +4.6%, statistically significant): −9.9%
change in abdominal subcutaneous adipose tissue (SAT) ([1]; placebo +8.1%, statistically significant): −7.2%

(S)-α-Ethoxy-4-[2-[-methyl-5-[4-(methylthio)phenyl]-1H-pyrrol-1-yl]ethoxy] benzenepropanoic acid magnesium salt [compound of formula (I)]
HDL Cholesterol, Maximum ([2]; Visit 3 (Week 6)): 73.50 mg/dL
HDL Cholesterol, Minimum ([2]; Visit 3 (Week 6)): 20.13 mg/dL
HOMA of Beta Cell Function for Insulin, Maximum ([2]; Visit 3 (Week 6)): 348.00
HOMA of Beta Cell Function for Insulin, Minimum ([2]; Visit 3 (Week 6)): 34.90
Homa of Insulin Resistance for C-Peptide, Maximum ([2]; Visit 3 (Week 6)): 3.60
Homa of Insulin Resistance for C-Peptide, Minimum ([2]; Visit 3 (Week 6)): 0.90
Insulin (fasting), Maximum ([2]; Visit 3 (Week 6)): 26.82 μu/mL
Insulin (fasting), Minimum ([2]; Visit 3 (Week 6)): 2.14 μu/mL
TG, Maximum ([2]; Visit 3 (Week 6)): 631.08 mg/dL
TG, Minimum ([2]; Visit 3 (Week 6)): 42.61 mg/dL
Homa of Insulin Resistance for C-Peptide, Mean ± SD ([2]; Visit 3 (Week 6)): 1.86 ± 0.77
Insulin (fasting), Mean ± SD ([2]; Visit 3 (Week 6)): 10.42 ± 5.74 μu/mL
HDL Cholesterol, Mean ± SD ([2]; Visit 3 (Week 6)): 44.44 ± 14.04 mg/dL
HOMA of Beta Cell Function for Insulin, Mean ± SD ([2]; Visit 3 (Week 6)): 136.41 ± 76.00
TG, Mean ± SD ([2]; Visit 3 (Week 6)): 172.81 ± 106.30 mg/dL
Homa of Insulin Resistance for C-Peptide, Median ([2]; Visit 3 (Week 6)): 1.70
Insulin (fasting), Median ([2]; Visit 3 (Week 6)): 8.35 μu/mL
HDL Cholesterol, Median ([2]; Visit 3 (Week 6)): 43.36 mg/dL
HOMA of Beta Cell Function for Insulin, Median ([2]; Visit 3 (Week 6)): 116.50
TG, Median ([2]; Visit 3 (Week 6)): 147.68 mg/dL
HOMA of Beta Cell Function for Insulin, % Change from Visit 1 (LS Mean ± SE) ([2]; Visit 3 (Week 6), p 0.0010): 52.50±14.94%
HOMA of Beta Cell Function for Insulin, % Change from Visit 1 (LS Mean ± SE) ([2]; Visit 3 (Week 6), p 0.0010, listed as COMPOUND OF FORMULA(I)): 52.50 ± 14.94%
HOMA of Beta Cell Function for Insulin, Change from Visit 1 (LS Mean ± SE) ([2]; Visit 3 (Week 6), p 0.0015): 29.55 ± 8.76
HDL Cholesterol, % Change from Visit 1 (LS Mean ± SE) ([2]; Visit 3 (Week 6), p <0.0001): 29.92±5.73%
HDL Cholesterol, Change from Visit 1 (LS Mean ± SE) ([2]; Visit 3 (Week 6), p <0.0001): 9.17 ± 1.99 mg/dL
Homa of Insulin Resistance for C-Peptide, % Change from Visit 1 (LS Mean ± SE) ([2]; Visit 3 (Week 6), p <0.0001): 27.87±4.22%
Homa of Insulin Resistance for C-Peptide, Change from Visit 1 (LS Mean ± SE) ([2]; Visit 3 (Week 6), p <0.0001): 0.27 ± 0.05
Insulin (fasting), % Change from Visit 1 (LS Mean ± SE) ([2]; Visit 3 (Week 6), p <0.0001): 23.71±3.55%
Insulin (fasting), Change from Visit 1 (LS Mean ± SE) ([2]; Visit 3 (Week 6), p <0.0001): 1.21 ± 0.22 μu/mL
TG, % Change from Visit 1 (LS Mean ± SE) ([2]; Visit 3 (Week 6), p <0.0001): -40.98±4.89%
TG, Change from Visit 1 (LS Mean ± SE) ([2]; Visit 3 (Week 6), p <0.0001): -128.87 ± 14.96 mg/dL
HDL Cholesterol, % Change from Visit 1 (LS Mean ± SE) [2, 4]: 29.92 ± 5.73%
Homa of Insulin Resistance for C-Peptide, % Change from Visit 1 (LS Mean ± SE) [2, 4]: 27.87 ± 4.22%
Insulin (fasting), % Change from Visit 1 (LS Mean ± SE) [2, 4]: 23.71 ± 3.55%
TG, % Change from Visit 1 (LS Mean ± SE) [2, 4]: −40.98 ± 4.89%
HDL Cholesterol, Maximum ([2]; Visit 4 (Week 12)): 82.89 mg/dL
HDL Cholesterol, Minimum ([2]; Visit 4 (Week 12)): 17.61 mg/dL
HOMA of Beta Cell Function for Insulin, Maximum ([2]; Visit 4 (Week 12)): 273.30
HOMA of Beta Cell Function for Insulin, Minimum ([2]; Visit 4 (Week 12)): 9.80
Homa of Insulin Resistance for C-Peptide, Maximum ([2]; Visit 4 (Week 12)): 3.60
Homa of Insulin Resistance for C-Peptide, Minimum ([2]; Visit 4 (Week 12)): 1.10
Insulin (fasting), Maximum ([2]; Visit 4 (Week 12)): 24.29 μu/mL
Insulin (fasting), Minimum ([2]; Visit 4 (Week 12)): 5.93 μu/mL
TG, Maximum ([2]; Visit 4 (Week 12)): 387.69 mg/dL
TG, Minimum ([2]; Visit 4 (Week 12)): 46.88 mg/dL
Homa of Insulin Resistance for C-Peptide, Mean ± SD ([2]; Visit 4 (Week 12)): 2.15 ± 0.62
Insulin (fasting), Mean ± SD ([2]; Visit 4 (Week 12)): 11.40 ± 4.45 μu/mL
HDL Cholesterol, Mean ± SD ([2]; Visit 4 (Week 12)): 46.14 ± 14.84 mg/dL
HOMA of Beta Cell Function for Insulin, Mean ± SD ([2]; Visit 4 (Week 12)): 137.56 ± 46.11
TG, Mean ± SD ([2]; Visit 4 (Week 12)): 166.97 ± 89.17 mg/dL
Homa of Insulin Resistance for C-Peptide, Median ([2]; Visit 4 (Week 12)): 2.10
Insulin (fasting), Median ([2]; Visit 4 (Week 12)): 10.18 μu/mL
HDL Cholesterol, Median ([2]; Visit 4 (Week 12)): 47.70 mg/dL
HOMA of Beta Cell Function for Insulin, Median ([2]; Visit 4 (Week 12)): 125.60
TG, Median ([2]; Visit 4 (Week 12)): 145.91 mg/dL
HDL Cholesterol, % Change from Visit 1 (LS Mean ± SE) ([2]; Visit 4 (Week 12), p <0.0001): 34.56±6.13%
HDL Cholesterol, Change from Visit 1 (LS Mean ± SE) ([2]; Visit 4 (Week 12), p <0.0001): 10.87 ± 2.08 mg/dL
HOMA of Beta Cell Function for Insulin, % Change from Visit 1 (LS Mean ± SE) ([2]; Visit 4 (Week 12), p <0.0001): 45.64±6.22%
HOMA of Beta Cell Function for Insulin, Change from Visit 1 (LS Mean ± SE) ([2]; Visit 4 (Week 12), p <0.0001): 30.78 ± 4.25
Homa of Insulin Resistance for C-Peptide, % Change from Visit 1 (LS Mean ± SE) ([2]; Visit 4 (Week 12), p <0.0001): 58.29±5.74%
Homa of Insulin Resistance for C-Peptide, Change from Visit 1 (LS Mean ± SE) ([2]; Visit 4 (Week 12), p <0.0001): 0.56 ± 0.05
Insulin (fasting), % Change from Visit 1 (LS Mean ± SE) ([2]; Visit 4 (Week 12), p <0.0001): 47.10±4.21%
Insulin (fasting), Change from Visit 1 (LS Mean ± SE) ([2]; Visit 4 (Week 12), p <0.0001): 2.20 ± 0.21 μu/mL
TG, % Change from Visit 1 (LS Mean ± SE) ([2]; Visit 4 (Week 12), p <0.0001): -45.11±3.60%
TG, Change from Visit 1 (LS Mean ± SE) ([2]; Visit 4 (Week 12), p <0.0001): -134.71 ± 10.78 mg/dL
HDL Cholesterol, % Change from Visit 1 (LS Mean ± SE) [2, 5]: 34.56 ± 6.13%
HOMA of Beta Cell Function for Insulin, % Change from Visit 1 (LS Mean ± SE) [2, 5]: 45.64 ± 6.22%
Homa of Insulin Resistance for C-Peptide, % Change from Visit 1 (LS Mean ± SE) [2, 5]: 58.29 ± 5.74%
Insulin (fasting), % Change from Visit 1 (LS Mean ± SE) [2, 5]: 47.10 ± 4.21%
TG, % Change from Visit 1 (LS Mean ± SE) [2, 5]: −45.11 ± 3.60%
increase in the HOMA of Beta-cell function derived from C-peptide from baseline ([2]; Week 6, p 0.0104): 68.25±25.58
HOMA of insulin resistance derived from insulin, percent change from baseline ([2]; Week 6, p <0.0001): 29.10±3.94%
change in the non-HDL cholesterol levels from baseline ([2]; Week 6 and Week 12, p-values 0.3963 and 0.4646): no statistically significant change
HOMA of insulin resistance derived from insulin, percent change from baseline ([2]; Week 12, p <0.0001): 42.65±3.79%
increase in the HOMA of Beta-cell function derived from C-peptide from baseline ([2]; Week 12, p <0.0001): 71.67±16.20
efficacy (Dyslipidemia subjects): effective
tolerability (Dyslipidemia subjects): well tolerated
effect of food on absorption [3]: food significantly affects absorption
